Data as given in US4983616A, “Hexahydropyrrolo(2,3-B)indole carbamates, ureas, amides and related compounds” (priority 1990, dated 1991).
pIC50: −log10 of the molar value. Where a name gives a salt, the structure may show the parent alone. Read-outs that look alike come from different tables or passages of the source.

Key:
[1] = system: Scopolamine Induced Memory Deficit; type: in vivo, mice
Experimental: In this assay mice are tested for their ability to remember an unpleasant stimulus for a period of 24 hours. A mouse is placed in a chamber that contains a dark compartment; a strong incandescent light drives it to the dark compartment, where an electric shock is administered through metal plates on the floor. The animal is removed from the testing apparatus and tested again, 24 hours later, for the ability to remember the electric shock.
If scopolamine, an anticholinergic that is known to cause memory impairment, is administered before an animal's initial exposure to the test chamber, the animal re-enters the dark compartment shortly after being placed in the test chamber 24 hours later. This effect of scopolamine is blocked by an active test compound, resulting in a greater interval before re-entry into the dark compartment.
The results for an active compound are expressed as the percent of a group of animals in which the effect of scopolamine is blocked, as manifested by an increased interval between being placed in the test chamber and re-entering the dark compartment.
Results of this assay for some of the compounds of this invention and those for tacrine and pilocarpine (reference compounds) are presented in Table 2.

[2] = target: T1, Brain AChE (acetylcholinesterase, rat striatum) (Rattus norvegicus, UniProt P37136); assay: In Vitro Inhibition of Acetylcholinesterase Activity in Rat Striatum; type: biochemical, rat (male Wistar)
T1 construct: corpora striata dissected free, weighed and homogenized in 19 volumes; from tissue; host or cells: corpora striata of male Wistar rats, whole homogenate
T1 sequence (P37136 32-614): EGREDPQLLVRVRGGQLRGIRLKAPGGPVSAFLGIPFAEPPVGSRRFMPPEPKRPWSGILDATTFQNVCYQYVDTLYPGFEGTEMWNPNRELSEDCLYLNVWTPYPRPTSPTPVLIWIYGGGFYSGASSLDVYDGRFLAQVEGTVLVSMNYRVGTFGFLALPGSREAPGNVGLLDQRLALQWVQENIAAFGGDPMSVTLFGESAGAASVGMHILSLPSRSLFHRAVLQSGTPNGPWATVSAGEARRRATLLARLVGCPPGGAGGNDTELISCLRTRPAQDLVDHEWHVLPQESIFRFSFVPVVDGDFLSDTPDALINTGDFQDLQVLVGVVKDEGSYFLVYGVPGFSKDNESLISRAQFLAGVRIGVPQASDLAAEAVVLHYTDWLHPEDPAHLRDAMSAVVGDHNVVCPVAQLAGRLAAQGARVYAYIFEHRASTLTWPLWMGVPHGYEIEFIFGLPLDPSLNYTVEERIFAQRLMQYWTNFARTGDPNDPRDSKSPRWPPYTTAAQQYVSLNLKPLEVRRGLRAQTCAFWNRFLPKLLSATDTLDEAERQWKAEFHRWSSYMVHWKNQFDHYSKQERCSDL
Experimental: Cholinesterases are found throughout the body, both in the brain and in serum. However, only brain acetylcholinesterase (AChE) distribution is correlated with central cholinergic innervation.
In Vitro Inhibition of Acetylcholinesterase Activity in Rat Striatum
The method described below was used in this invention for assaying cholinesterase activity.
1. 0.05M Phosphate buffer, pH 7.2
(a) 6.85 g NaH2 PO4 .cndot.H2 O/100 ml distilled H2 O
(c) add (a) to (b) until pH reaches 7.2
(a) 9.9 mg 5,5-dithiobisnitrobenzoic acid (DTNB) (0.25 mM)
(b) 99 mg s-acetylthiocholine chloride (5 mM)
(c) q.s. to 100 ml with 0.05M phosphate buffer, pH 7.2 (reagent 1)
3. […]
Following the 10 minute preincubation of the tissue (enzyme) with the inhibitor, the samples are mixed with the substrate chromogen buffer by the ABA-100. Using the indicated instrument settings the ABA-100 automatically reads the color reaction and prints out the results in enzyme units after 15 minutes.
2. The enzyme activity can also be measured with Gilford 250 spectrophotometer. […]
The uninhibited activity of the enzyme (tissue homogenate) is first determined. […] The reaction rate is determined by the slope of the recorded absorbance change. […]

[3] = 5.0 mg/kg of body weight, s.c, mice, 24 hours
[4] = 0.31 mg/kg of body weight, s.c, mice, 24 hours

Row | Compound | % of Animals with Scopolamine Induced Memory Deficit Reversal [1, 3] [%] | pIC50 [2] | % of Animals with Scopolamine Induced Memory Deficit Reversal [1, 4] [%] | also measured
1 | CC[C@@H]1C(=O)OC[C@@H]1Cc1cncn1C [Pilocarpine, reference compound] | 13 |  |  | 
2 | CN1CCC2(C)c3cc(NC(=O)Oc4ccc(Cl)cc4)ccc3N(C)C12 (stereo not shown) [5-(4-Chlorophenoxycarbonylamino)-1,2,3,3a,8,8a-hexahydro-1,3a,8-trimethylpyrrolo[2,3-b]indole oxalate] |  | 5.96 |  | 
3 | CN1CCC2(C)c3cc(NC(=O)OCc4ccccc4)ccc3N(C)C12 (stereo not shown) [5-(Benzoxycarbonylamino)-1,2,3,3a,8,8a-hexahydro-1,3a,8-trimethylpyrrolo[2,3-b]indole] |  |  |  | % of Animals with Scopolamine Induced Memory Deficit Reversal ([1]; 0.3 mg/kg of body weight, s.c, mice, 24 hours): 28%; % of Animals with Scopolamine Induced Memory Deficit Reversal ([1]; 1.0 mg/kg of body weight, s.c, mice, 24 hours): 21%; % of Animals with Scopolamine Induced Memory Deficit Reversal ([1]; 3.0 mg/kg of body weight, s.c, mice, 24 hours): 21%
4 | CN1CCC2(C)c3cc(NC(=O)Oc4ccccc4)ccc3N(C)C12.O=C(O)C(=O)O (stereo not shown) [1,2,3,3a,8,8a-Hexahydro-5-(phenoxycarbonylamino)-1,3a,8-trimethylpyrrolo[2,3-b]indole oxalate] | 21 | 4.85 | 40 | % of Animals with Scopolamine Induced Memory Deficit Reversal ([1]; 1.16 mg/kg of body weight, s.c, mice, 24 hours): 53%
5 | Nc1c2c(nc3ccccc13)CCCC2 [Tacrine, reference compound] |  |  |  | % of Animals with Scopolamine Induced Memory Deficit Reversal ([1]; mouse, in vivo): 13%
6 | CN1CCC2(C)c3cc(NC(=O)OC(C)(C)C)ccc3N(C)C12.O=C(O)C(=O)O (stereo not shown) [5-(t-Butoxycarbonylamino)-1,2,3,3a,8,8a-hexahydro-1,3a,8-trimethylpyrrolo[2,3-b]indole oxalate] | 27 |  | 33 | % of Animals with Scopolamine Induced Memory Deficit Reversal ([1]; 1.25 mg/kg of body weight, s.c, mice, 24 hours): 20%
